Assay results reported in patent US20110008279A1, “Methods and Compositions Relating to Adhesins as Adjuvants” (priority 2005, published 2011).

What was measured:
human monocytes = test: Cytokine and chemokine secretion by human monocytes (Bio-Plex, IL-23 ELISA); assay type: cell-based
mo-DCs [1] = test: Real-time PCR of cytokine mRNA in mo-DCs; assay type: cell-based, human
Method: Mo-DC were pre-treated or not with IFN-γ 1000 U/ml and stimulated with NadA […] and LPS […] for 3-5-8 h. Treated and untreated cells were pelleted and used for RNA isolation. Total RNA was extracted using the TRIzolÒ reagent (GibcoBRL) according to the manufacturer's instruction, precipitated and resuspended in […] of RNAse free water (Gibco). RNA was quantified with a fluorescence spectrophotometer (BeckmanDU 530). First strand cDNA was prepared from […] of total RNA by using the Superscript™ II Reverse Transcriptase (Invitrogen) with oligodT primers (Sigma Genosys). The cDNA levels of IL12p35, IL12p40, IL-23p19, TNF-α and IL-6 were quantified by Real Time quantitative PCR using a qPCRTM Core Kit for Sybr Green I (Eurogentec) with a GeneAmp 5700 Sequence Detection System according to the manifacturer's instructions (Applied Biosystems). After an initial denaturation step at 95° C. for 10 min, temperature cycling was initiated. Each cycle consisted of 30 sec at 95° C. and 30 sec at 60° C. […]
All amplification products were cloned into a TOPO TA vector (Invitrogen) and quantified by Beckman DU 530 spectrophotometer. […]
The cDNA levels during the linear phase of amplification were normalized against HMBS. […] CT values were determined by the GeneAmp 5700 SDS software using fluorescence threshold manually set and exported into Excel for analysis.

[2] = test system: allogenic CD4+ naïve T lymphocyte; test: Allogenic mixed leukocyte reaction, naive CD4+ T-cell proliferation; assay type: cell-based, human
Method: Allogenic mixed leukocyte reaction was performed with irradiated (3000 rads from a ^137Cs source) mo-DC and purified allogenic T cells. […], LPS 1 μg/ml (positive control) and non stimulated DC (negative control) pretreated or not with IFN-γ 1000 U/ml were washed and cultured with allogenic CD4+ naïve T lymphocyte (0.3×10^5 cells/well) for 5 days at 37° C. in a humidified CO2 incubator in round-bottom 96-well microtiter plates (Costar). Proliferation was measured by pulse-labelling triplicate wells for 6 h with 1 μCi of 3H-Thymidine/well (Amersham Biosciences). Negative controls included T naive cells incubated or DC incubated alone.
^3H-Thymidine incorporation was measured by harvesting cells onto glass fiber filter paper (Pall Corporation, Life Sciences) using a 96-well semiautomatic cell harvester (Multiwash 2000, Dynatech) and counting by liquid scintillation in a […] (Wallac 1409 liquid scintillation counter).

mo-DCs [3] = test: Expression of maturation markers on mo-DCs (flow cytometry); assay type: cell-based, human; conditions: for CD86 expression on co-stimulation with R-848: R-848 1 μM, NadA 1.5 μM
Method: Reagents used were tested for low endotoxin contamination using the Limulus amoebocyte assay (Sigma). Dendritic cells were generated from human peripheral blood mononuclear cells (PBMC) as described previously. In brief, PBMC were isolated from buffy coats of healthy donors by Ficoll-Paque Plus density gradient centrifugation (Amersham Pharmacia Biotech AB). Separate monocyte and T-cell fractions were obtained from PBMCs by Percoll density gradient centrifugation (Amersham Pharmacia Biotech AB). […] DC were obtained by 6-d culture adherent monocytes in medium with 20 ng/ml IL-4 (5×10^6 units/mg, Peprotech) and 50 ng/ml GM-CSF (1×10^7 units/mg, Peprotech). Cytokines were added again on day 4 in RPMI-1640 medium supplemented with 10% FBS. […] After 24 h cells were harvested and analysed. Culture supernatants were collected frozen in liquid nitrogen and conserved at −80° C. for cytokine analysis.
After differentiation, DC were routinely stained with phycoerytrin conjugated monoclonal antibodies to human CD14, CD1a, CD83, CD86 (B7.2), CD80 (B7.1), MHC II (HLA-DR), purchased from BD-Pharminghen and Caltag. In parallel, cells were stained with the isotype matched control mAb. Cells were immunostained with the proper dilution of PE-conjugated anti human monoclonal antibodies at 4° C. for 30 min in 100 μl of phosphate-buffered saline pH 7.2 (PBS, GIBCO BRL) containing 1% FBS and 0.1% NaN3 (FACS buffer). After washing, propidium iodide was added to exclude dead cells and cell fluorescence intensities of the gated populations were measured with a EPICS XL-MCL (Coulter) flow cytometer and analyzed with EXPO 32ADC XL 3COLOR or WinMDI 2.8. software. Data were collected on 10000-20000 events.

monocytes = test: Apoptosis and survival of monocytes (caspase-3 assay, MTT assay); assay type: cell-based, human
Method: A) Caspase-3 assay, B) MTT assay.
The survival effect of NadA on monocytes was investigated. […] Apoptosis was not increased after a 40 hour exposure to NadAΔ351-405 or LPS. […] NadA survival effect was compared with the action of LPS or medium alone.

mo-DCs [4] = test: Morphology of mo-DCs (light microscopy); assay type: cell-based, human; conditions: IFN-γ priming 18 hours, NadAΔ351-405 1.5 μM, 3 hours
[5] = test system: alternative pathway in the complement system; test: Bactericidal assay, complement alternative pathway (NHS, Mg2+/EGTA, E. coli-pET); assay type: biochemical, human; conditions: 3 μM, control E. coli-pET
Method: Complement activation by the alternative pathway was also investigated. […] The susceptibility to complement-mediated lysis was determined by incubating E. coli-NadA and E. coli-pET with 0-75% NHS at 37° C. for 15 min under agitation. The number of surviving bacterial cells was measured by serial agar plating and colony counting.

NadAΔ351-405
IL-10 production (human monocytes): induced the production
IL-23 expression (human monocytes): only in the presence of IFNγ
MCP-1 production (human monocytes): significant levels
IL-1α, IL-1β and TNFα secretion (human monocytes; NadA alone): not significantly induced
IL-8 secretion (human monocytes; NadA alone): significant secretion
IP-10 production (human monocytes; NadA alone): In neither monocytes nor macrophages was NadA alone able to produce IP-10
IL-12(p40) and IL-12(p70) expression (human monocytes; alone or in the presence of LPS): not significantly expressed
expression of IL-1α and TNFα (human monocytes; co-stimulation with LPS): inhibited
GM-CSF secretion (human monocytes; even with IFNγ co-stimulation): does not stimulate secretion
IL-10 expression (so in the source) (human monocytes; only in the presence of IFNγ and LPS): efficiently increased
IL-6 secretion (human monocytes; presence or absence of LPS): significant secretion
MIP-1α production (human monocytes; with or without co-stimulus): produced
IL12-p40, IL12-p35 and IL-23p19 transcription (mo-DCs [1]): increased by NadA only if cells were primed with IFN-γ
transcription activities of genes encoding IL-6, TNFα, p40, p35 and p19 relative to LPS-activated cells (mo-DCs [1]; IFN-γ primed mo-DCs): < 1%
T lymphocyte activation by mo-DCs ([2]; absence of IFN-γ priming, 1 μM): not able to induce a mo-DC phenotype competent for T lymphocyte activation
T cell proliferation relative to LPS-matured mo-DCs ([2]; mo-DCs primed with INFγ then stimulated with NadA): 30-40%
CD86 expression on co-stimulation with R-848 (mo-DCs [3]; no IFN-γ priming): addition of the two effects
CD86 expression on co-stimulation with R-848 (mo-DCs [3]; after IFN-γ priming, flagellin 10 μg/ml): maximal CD86 expression
CD83 level relative to that induced by LPS (mo-DCs [3]; after IFN-γ priming): ~50%
CD86 expression, dose response (mo-DCs [3]; after IFN-γ priming): effectively induced CD86 also in the submicromolar concentration range
CD86 level (mo-DCs [3]; after IFN-γ priming): reached the same value observed in LPS-treated cells
IFN-γ potentiation of NadA effect on CD86 (mo-DCs [3]; at higher NadA concentrations): 2-3 fold
CD86 expression, dose response (mo-DCs [3]; no IFN-γ priming): not different from control cells below 1 μM NadA
plasma membrane HLA-DR expression (mo-DCs [3]; no IFN-γ priming): partially increased
CD83 expression (mo-DCs [3]; no IFN-γ priming, 24 hour exposure, 1 μM / 1.5 μM): not increased
apoptotic effect compared with medium-treated monocytes (monocytes): four times less
apoptotic effect compared with the amount induced by LPS (monocytes): two times less
cell morphology (mo-DCs [4]): some cells became elongated and tended to cluster
effect on the alternative pathway [5]: partially inhibit
